In ChEMBL document CHEMBL3714768 (2012):

How the values were obtained:
[1] = Selectivity index, ratio of IC50 for purified human red blood cell PP2A (unknown origin) to IC50 for purified rabbit skeletal muscle PP1
[2] = biological target: Serine/threonine-protein phosphatase PP1-alpha catalytic subunit (Oryctolagus cuniculus, UniProt P62139); experiment: Inhibition of purified rabbit skeletal muscle protein phosphatase 1 using DiFMUP substrate incubated for 30 mins
MCF7 = experiment: Cytotoxicity against human MCF7 cells by fluorescent Calcein-AM assay; type: functional, cell-based
[3] = Cytotoxicity against human HCT116 cells by fluorescent Calcein-AM assay; type: functional, cell-based; settings: hct-116
[4] = Cytotoxicity against human DU145 cells by fluorescent Calcein-AM assay; type: functional, cell-based; settings: du-145

Serine/threonine-protein phosphatase PP1-alpha catalytic subunit, sequence (P62139 whole entry): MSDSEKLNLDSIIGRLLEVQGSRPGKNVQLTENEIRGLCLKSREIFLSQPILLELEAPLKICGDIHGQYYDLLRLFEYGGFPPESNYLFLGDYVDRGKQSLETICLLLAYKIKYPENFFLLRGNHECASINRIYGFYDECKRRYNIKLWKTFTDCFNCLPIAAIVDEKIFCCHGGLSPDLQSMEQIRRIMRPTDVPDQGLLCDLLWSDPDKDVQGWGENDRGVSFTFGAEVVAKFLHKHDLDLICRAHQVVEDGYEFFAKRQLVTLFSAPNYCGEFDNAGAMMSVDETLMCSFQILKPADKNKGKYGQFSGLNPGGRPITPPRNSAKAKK

`CCC(/C=C/C(=O)O)=C\[C@H](O)C[C@H](C)C[C@@H](C)CC[C@H](O)[C@H](C)C(=O)C[C@@H](O)[C@H](C)[C@@H](C)OC(=O)C[C@@H](O)C1=C(C)C(=O)OC1=O` showed a Ratio IC50 [1] of 3.8.
For `CCC(/C=C/C(=O)O)=C\C(=O)C[C@H](C)C[C@@H](C)CC[C@H](O)[C@H](C)C(=O)C[C@@H](O)[C@H](C)[C@@H](C)OC(=O)C[C@@H](O)C1=C(C)C(=O)OC1=O`, the IC50 [2] was 28 µM.
For `CCC(/C=C/C(=O)O)=C\[C@@H](O)C[C@H](C)C[C@@H](C)CC[C@H](O)[C@H](C)C(=O)C[C@@H](O)[C@H](C)[C@@H](C)OC(=O)C[C@@H](O)C1=C(C)C(=O)OC1=O`, the Ratio IC50 [1] was 4.5, the IC50 (MCF7) was “Not Active” and the IC50 [3] was “Not Active”. The IC50 [4] was “Not Active”.
For `CC/C(=C\CC[C@H](C)C[C@@H](C)CC[C@H](O)[C@H](C)C(=O)C[C@@H](O)[C@H](C)[C@@H](C)OC(=O)C[C@@H](O)C1=C(C)C(=O)OC1=O)C(O)CC(=O)O` (some centres undefined), the Ratio IC50 [1] was 3.8, the IC50 (MCF7) was “Not Active” and the IC50 [3] was “Not Active”. For the same molecule, the IC50 [4] was “Not Active”.
In the case of `CCC(/C=C/C(=O)O)=C\CC[C@H](C)C[C@@H](C)CC[C@H](O)[C@H](C)C(=O)C[C@@H](O)[C@H](C)[C@@H](C)OC(=O)C[C@@H](O)C1=C(C)C(=O)OC1=O`, the Ratio IC50 [1] is reported as 4, the IC50 (MCF7) is reported as “Not Active” and the IC50 [3] is reported as “Not Active”. For the same molecule, the IC50 [4] was “Not Active”.
